Molecular target: BCL6 (Homo sapiens (Human), UniProt P41182)
Test: Immunofluorescence high content imaging of BCL6 degradation in T47D cells
Assay type: cell-based
Conditions: T47D cells
Outline: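 Seed T47D in RPMI1640-10% FBS to reach ~70-90% confluence at endpoint; add degrader next day (11-point 3-fold series, top 0.1 or 1 μM final) for 3 days. Then fix, permeabilize, stain BCL6 with nuclear Hoechst, and image.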

| Dmax [%] | IC50 [nM] | SMILES |
| --- | --- | --- |
| 50 to 70 | < 10 | CCn1c(=O)c(OCC(=O)NC)cc2cc(Nc3nc(N4CCN(CC5CCN(c6ccc(C(=O)NC7CCC(=O)NC7=O)c(OC)c6)CC5)CC4)ncc3Cl)ccc21 (stereo not drawn) [compound 375, 4-[4-({4-[5-chloro-4-({1-ethyl-3-[(methylcarbamoyl)methoxy]-2-oxo-1,2-dihydroquinolin-6-yl}amino)pyrimidin-2-yl]piperazin-1-yl}methyl)piperidin-1-yl]-N-(2,6-dioxopiperidin-3-yl)-2-methoxybenzamide] |
| 50 to 70 | < 10 | CNC(=O)COc1cc2cc(Nc3nc(N4CCN(CC5CCN(c6ccc(C(=O)NC7CCC(=O)NC7=O)c(OC)c6)CC5)CC4)ncc3Cl)ccc2n(C(C)C)c1=O (stereo not drawn) [compound 376, 4-[4-({4-[5-chloro-4-({3-[(methylcarbamoyl)methoxy]-2-oxo-1-(propan-2-yl)-1,2-dihydroquinolin-6-yl}amino)pyrimidin-2-yl]piperazin-1-yl}methyl)piperidin-1-yl]-N-(2,6-dioxopiperidin-3-yl)-2-methoxybenzamide] |
|  | ≥ 100 | CNC(=O)COc1cc2cc(Nc3nc(N4CCN(CC5CCN(c6ccc(C(=O)NC7CCC(=O)NC7=O)[n+]([O-])c6)CC5)CC4)ncc3Cl)ccc2n(C)c1=O (stereo not drawn) [compound 377, 5-[4-({4-[5-chloro-4-({1-methyl-3-[(methylcarbamoyl)methoxy]-2-oxo-1,2-dihydroquinolin-6-yl}amino)pyrimidin-2-yl]piperazin-1-yl}methyl)piperidin-1-yl]-2-[(2,6-dioxopiperidin-3-yl)carbamoyl]pyridin-1-ium-1-olate] |
|  | ≥ 100 | CNC(=O)COc1cc2cc(Nc3nc(N4CCO[C@H](CCOc5ccc6c(c5)C(=O)N(C5CCC(=O)NC5=O)C6=O)C4)ncc3Cl)ccc2n(C(C)C)c1=O (stereo partly drawn) [compound 379, 2-{[6-({5-chloro-2-[(2R)-2-(2-{[2-(2,6-dioxopiperidin-3-yl)-1,3-dioxo-2,3-dihydro-1H-isoindol-5-yl]oxy}ethyl)morpholin-4-yl]pyrimidin-4-yl}amino)-2-oxo-1-(propan-2-yl)-1,2-dihydroquinolin-3-yl]oxy}-N-methylacetamide] |
| < 50 | 10 to 50 | CNC(=O)COc1cc2cc(Nc3nc(N4CCN(CC5CCCN5c5ccc6c(c5)C(=O)N(C5CCC(=O)NC5=O)C6=O)CC4)ncc3Cl)ccc2n(C(C)C)c1=O (stereo not drawn) [compound 380, 2-{[6-({5-chloro-2-[4-({1-[2-(2,6-dioxopiperidin-3-yl)-1,3-dioxo-2,3-dihydro-1H-isoindol-5-yl]pyrrolidin-2-yl}methyl)piperazin-1-yl]pyrimidin-4-yl}amino)-2-oxo-1-(propan-2-yl)-1,2-dihydroquinolin-3-yl]oxy}-N-methylacetamide] |
| 50 to 70 | 50 to 100 | CNC(=O)COc1cc2cc(Nc3nc(N4C[C@@H](COc5ccc6c(c5)C(=O)N(C5CCC(=O)NC5=O)C6=O)O[C@H](C)C4)ncc3Cl)ccc2n(C(C)C)c1=O (stereo partly drawn) [compound 382, 2-{[6-({5-chloro-2-[(2S,6R)-2-({[2-(2,6-dioxopiperidin-3-yl)-1,3-dioxo-2,3-dihydro-1H-isoindol-5-yl]oxy}methyl)-6-methylmorpholin-4-yl]pyrimidin-4-yl}amino)-2-oxo-1-(propan-2-yl)-1,2-dihydroquinolin-3-yl]oxy}-N-methylacetamide] |
| 50 to 70 | 10 to 50 | CNC(=O)COc1cc2cc(Nc3nc(N4C[C@@H](COc5ccc6c(c5)C(=O)N(C5CCC(=O)NC5=O)C6=O)O[C@@H](C)C4)ncc3Cl)ccc2n(C(C)C)c1=O (stereo partly drawn) [compound 383, 2-{[6-({5-chloro-2-[(25,6S)-2-({[2-(2,6-dioxopiperidin-3-yl)-1,3-dioxo-2,3-dihydro-1H-isoindol-5-yl]oxy}methyl)-6-methylmorpholin-4-yl]pyrimidin-4-yl}amino)-2-oxo-1-(propan-2-yl)-1,2-dihydroquinolin-3-yl]oxy}-N-methylacetamide] |
| ≥ 70 | < 10 | CNC(=O)COc1cc2cc(Nc3nc(N4CCC5(CC4)CN(CC4CCN(c6ccc7c(c6)C(=O)N(C6CCC(=O)NC6=O)C7=O)CC4)C5)ncc3Cl)ccc2n(C(C)C)c1=O (stereo not drawn) [compound 384] |
| 50 to 70 | < 10 | CNC(=O)COc1cc2cc(Nc3nc(N4CCC5(CC4)CN(CC4CCN(c6cccc7c6C(=O)N(C6CCC(=O)NC6=O)C7=O)CC4)C5)ncc3Cl)ccc2n(C(C)C)c1=O (stereo not drawn) [compound 385, 2-{[6-({5-chloro-2-[2-({1-[2-(2,6-dioxopiperidin-3-yl)-1,3-dioxo-2,3-dihydro-1H-isoindol-4-yl]piperidin-4-yl}methyl)-2,7-diazaspiro[3.5]nonan-7-yl]pyrimidin-4-yl}amino)-2-oxo-1-(propan-2-yl)-1,2-dihydroquinolin-3-yl]oxy}-N-methylacetamide] |
| 50 to 70 | < 10 | CNC(=O)COc1cc2cc(Nc3nc(N4CCC(CN5CCC(c6cccc7c6C(=O)N(C6CCC(=O)NC6=O)C7=O)CC5)CC4)ncc3Cl)ccc2n(C(C)C)c1=O (stereo not drawn) [compound 386, 2-{[6-({5-chloro-2-[4-({4-[2-(2,6-dioxopiperidin-3-yl)-1,3-dioxo-2,3-dihydro-1H-isoindol-4-yl]piperidin-1-yl}methyl)piperidin-1-yl]pyrimidin-4-yl}amino)-2-oxo-1-(propan-2-yl)-1,2-dihydroquinolin-3-yl]oxy}-N-methylacetamide] |
| 50 to 70 | < 10 | CNC(=O)COc1cc2cc(Nc3nc(N4C[C@@H](C)N(CC5CCN(c6cccc7c6C(=O)N(C6CCC(=O)NC6=O)C7=O)CC5)[C@@H](C)C4)ncc3Cl)ccc2n(C(C)C)c1=O (stereo partly drawn) [compound 387, 2-{[6-({5-chloro-2-[(3R,5S)-4-({1-[2-(2,6-dioxopiperidin-3-yl)-1,3-dioxo-2,3-dihydro-1H-isoindol-4-yl]piperidin-4-yl}methyl)-3,5-dimethylpiperazin-1-yl]pyrimidin-4-yl}amino)-2-oxo-1-(propan-2-yl)-1,2-dihydroquinolin-3-yl]oxy}-N-methylacetamide] |
| 50 to 70 | < 10 | CNC(=O)COc1cc2cc(Nc3nc(N4CCN(CC5CCN(c6ccc7c(c6)CN(C6CCC(=O)NC6=O)C7=O)CC5)CC4)ncc3Cl)ccc2n(C(C)C)c1=O (stereo not drawn) [compound 388, 2-{[6-({5-chloro-2-[4-({1-[2-(2,6-dioxopiperidin-3-yl)-1-oxo-2,3-dihydro-1H-isoindol-5-yl]piperidin-4-yl}methyl)piperazin-1-yl]pyrimidin-4-yl}amino)-2-oxo-1-(propan-2-yl)-1,2-dihydroquinolin-3-yl]oxy}-N-methylacetamide] |
| < 50 | 10 to 50 | CC[C@@H]1CN(c2ncc(Cl)c(Nc3ccc4c(c3)cc(OCC(=O)NC)c(=O)n4C(C)C)n2)C[C@@H](COc2ccc3c(c2)C(=O)N(C2CCC(=O)NC2=O)C3=O)O1 (stereo partly drawn) [compound 389, 2-{[6-({5-chloro-2-[(2S,6R)-2-({[2-(2,6-dioxopiperidin-3-yl)-1,3-dioxo-2,3-dihydro-1H-isoindol-5-yl]oxy}methyl)-6-ethylmorpholin-4-yl]pyrimidin-4-yl}amino)-2-oxo-1-(propan-2-yl)-1,2-dihydroquinolin-3-yl]oxy}-N-methylacetamide] |
